Patent US9980937B2, “Therapeutic agent for Alzheimer's disease” (NAGASAKI UNIVERSITY, priority 2014, dated 2018)
One block for each compound: values may come before it.

Assays:
[1] = system: neprilysin, α-secretase, β-secretase; experiment: overall conclusion on modulation of neprilysin, α-secretase and β-secretase (Example 1); type: cell-based, human; settings: conclusion from the results of Example 1
Description: (§1) APP-H4 cells were seeded to a 6-well plate at a density of 12×10^4 cells/1.5 mL, and cultured in Dulbecco's modified Eagle's medium (DMEM; Nacalai Tesque, Inc.) added with 10% fetal bovine serum (FBS; Equitech-Bio, Inc. [Kerrville, Tex., USA]), 100 U/mL penicillin+100 μg/mL streptomycin (Nacalai Tesque, Inc.). After culture for 24 hr, the culture supernatant was removed, and the medium was exchanged with a medium with reduced use amount of serum, Opti-MEM (registered trade mark) I Reduced Serum Medium (Life Technologies Corporation, Carlsbad, Calif., USA) (1 mL). A polyphenol derivative (1 μL) to be the test target was added, and the mixture was further cultured for 48 hr. After culture, the culture supernatant was recovered in a tube (total amount 1.5 mL), centrifuged at 4,000×g/4° C./10 min to remove dead cells, and the supernatant (800 μL) was placed in a new tube. The culture supernatant was preserved at −80° C. before sample preparation. The cells were washed twice with ice-cooled phosphate-buffered saline (PBS). Thereafter, the cells were scraped from the plate using a Cell Scraper. The cells were recovered in a 1.5 mL tube and centrifuged at 4,000×g/4° C./10 min. The supernatant was removed and the cells were preserved at −80° C. before sample preparation. The frozen cells were lysed in 40 μL of solubilization buffer containing 1% Triton X-100, protease inhibitor cocktail Complete™ EDTA-free (Roche) and 50 mM Tris-HCl on ice. The cell lysate was incubated on ice for 60 min, centrifuged at 4° C., 21,900×g for 30 min, and the supernatant was recovered and used as a solubilization cell extract.
The neprilysin-dependent neutral endopeptidase activity of the cell extract was measured fluorescence quantitatively by an indirect coupled enzyme assay method. As a neutral endopeptidase substrate, succinyl-Ala-Ala-Phe-7-amino-4-methylcoumarin (suc-AAF-AMC) (1-1315; Bachem) was used. Total 50 μL of the reaction mixture was prepared such that the final concentration was substrate 0.1 mM suc-AAF-AMC, protein in the cell extract 1-6 μg, 100 mM MES buffer (pH 6.5). With the time of addition of the substrate as the start of the reaction, the mixture was reacted at 37° C. for 1 hr, and Phe-AMC was cut out from the substrate by neutral endopeptidase. Then, to the reaction mixture was added a solution (2.5 μL) containing 0.1 mg (0.4 unit equivalent)/mL leucine aminopeptidase (L-5006; Sigma-Aldrich), and 0.2 mM phosphoramidon (4082; Peptide Institute). The mixture was reacted at 37° C. for 30 min, and Phe (phenylalanine) residue was cut out from Phe-AMC by aminopeptidase. Using microplate spectrometer Infinite M-1000 (Tecan), the fluorescence intensity of free AMC was measured by measuring at an excitation wavelength 390 nm and a fluorescence wavelength 460 nm on a half-well size 96-well black plate (#3695; Corning). The neprilysin-dependent neutral endopeptidase activity was determined based on a decrease in the activity due to 10 μM thiorphan (T-6031; Sigma-Aldrich) as a neprilysin specific inhibitor.
After thawing from −80° C., the aforementioned culture supernatant was mixed with 6×SDS-polyacrylamide gel electrophoresis (SDS-PAGE) sample buffer (Nacalai Tesque, Inc.) at a ratio of 5:1, boiled for 5 min, and used as a detection sample of APPsα which is a metabolite of APP by α-secretase and APPsβ which is a metabolite of APP by β-secretase in western blot analysis. […]

neprilysin [2] = experiment: neprilysin-dependent neutral endopeptidase activity of APP-H4 cell extract (suc-AAF-AMC coupled enzyme assay); type: cell-based, human; settings: APP-H4 cells, 48 hr, 1 or 10 μM; activity without polyphenol derivative = 1 (FIG. 1)
Description: as §1
The total protein concentration of the cell extract was determined by a BCA protein assay kit (Takara) by using BSA as the standard solution. The final concentration of the test compound used was 1 μM or 10 μM, and quantification was performed using each solvent as a control.
The neprilysin-dependent neutral endopeptidase activity of the cell extract was measured fluorescence quantitatively by an indirect coupled enzyme assay method. […] Total 50 μL of the reaction mixture was prepared such that the final concentration was substrate 0.1 mM suc-AAF-AMC, protein in the cell extract 1-6 μg, 100 mM MES buffer (pH 6.5). With the time of addition of the substrate as the start of the reaction, the mixture was reacted at 37° C. for 1 hr, and Phe-AMC was cut out from the substrate by neutral endopeptidase. […] The mixture was reacted at 37° C. for 30 min, and Phe (phenylalanine) residue was cut out from Phe-AMC by aminopeptidase.

ADAM17 = experiment: α-secretase mRNA expression, ADAM17 (real-time PCR); type: cell-based, human; settings: control = 1
Description: (§2) In the same manner as in the above-mentioned 2, total RNA was prepared using a High Pure RNA Isolation kit (Roche 11828665001) from the cells to be the test target cells, which were treated with each polyphenol derivative and cultured, and subjected to a reverse transcription reaction using PrimeScript RT-PCR kit (TaKaRaRR014A) to give a sample (cDNA) for real-time PCR.
(§3) The prepared sample, Premix Ex taq (Perfect Real Time) (TaKaRaRR039A) and a probe, and a primer were mixed in a tube (TaKaRa SC910A), and real-time PCR reaction (initial denaturation: 95° C. 30 sec, PCR reaction: 95° C. 5 sec, 60° C. 20 sec, 40 times) was performed by Smart Cycler II System machine (TaKaRa).
(§4) The 5′-terminus of the probe was modified by a fluorescent substance FAM, and the 3′-terminus was modified by a quencher substance TAMRA, respectively.

[3] = system: neprilysin mRNA (MME gene); experiment: neprilysin mRNA expression (quantitative real-time PCR, MME gene); type: cell-based, human; settings: standardized to GAPDH mRNA (FIG. 3)
Description: as §2, §3, §4

[4] = coefficient of partition for octanol, in accordance with Fudouji et al. 2009; cited from earlier work
APP = experiment: extracellularly secreted APPsα/APPsβ ratio (western blot); type: cell-based, human; settings: APP-H4 culture supernatant (FIG. 2)
Description: as §1
After thawing from −80° C., the aforementioned culture supernatant was mixed with 6×SDS-polyacrylamide gel electrophoresis (SDS-PAGE) sample buffer (Nacalai Tesque, Inc.) at a ratio of 5:1, boiled for 5 min, and used as a detection sample of APPsα which is a metabolite of APP by α-secretase and APPsβ which is a metabolite of APP by β-secretase in western blot analysis.
The PVDF membrane after transfer was washed with a wash buffer and immersed in a blocking buffer to prevent non-specific binding of the primary antibody, and a blocking reaction was performed at room temperature for 1 hr. Thereafter, it was reacted with a primary antibody (APPsα, anti-human APPsα mouse monoclonal antibody (2B3, Immuno-Biological Laboratories Co., Ltd., Gunma, Japan) (3 μg/mL); APPsβ, anti-APPsβ, rabbit polyclonal antibody, 1 μg/mL) to perform an antigen-antibody-reaction at 4° C. for not less than 16 hr. […]
(§5) The signal intensity of the band was quantified using a densitometer LAS-4000 (GE Healthcare UK Ltd.) and image analysis software Science Laboratory 2003 Image Gauge Version 4.23 (Fujifilm Holdings Corporation, Tokyo, Japan). […]

neprilysin [5] = experiment: neprilysin expression amount at protein level (western blot, APP-H4 cells); type: cell-based, human; settings: 48 hr, standardized to β-actin (FIG. 2)
Description: as §1
The aforementioned cell extract was mixed with 6×SDS-polyacrylamide gel electrophoresis (SDS-PAGE) sample buffer (Nacalai Tesque, Inc.) at a ratio of 5:1, boiled for 5 min, and used as a detection sample of neprilysin, α-secretase and β-secretase proteins.
The PVDF membrane after transfer was washed with a wash buffer and immersed in a blocking buffer to prevent non-specific binding of the primary antibody, and a blocking reaction was performed at room temperature for 1 hr. […] The PVDF membrane after the reaction was washed with the wash buffer and the secondary antibody (horseradish peroxidase conjugated anti-mouse or anti-rabbit IgG (1:10,000; GE Healthcare UK Ltd.)) corresponding to the primary antibody was reacted at room temperature for 1 hr and detection was carried out using the ECL Select Western Blotting Detection Kit (GE Healthcare UK Ltd.).
The signal intensity of the band was quantified using a densitometer LAS-4000 (GE Healthcare UK Ltd.) and image analysis software Science Laboratory 2003 Image Gauge Version 4.23 (Fujifilm Holdings Corporation, Tokyo, Japan).

β-secretase = target: T1, β-secretase (Homo sapiens, UniProt P56817); experiment: β-secretase activity (APPsβ, western blot); type: cell-based; settings: APP-H4 culture supernatant, APPsβ (FIG. 2)
T1 construct: endogenous in cells; host or cells: APP-H4 cells (culture supernatant analysed)
Description: as §1, with “extract. […]” for “extract.”
as §5

T1 sequence (P56817 46-501): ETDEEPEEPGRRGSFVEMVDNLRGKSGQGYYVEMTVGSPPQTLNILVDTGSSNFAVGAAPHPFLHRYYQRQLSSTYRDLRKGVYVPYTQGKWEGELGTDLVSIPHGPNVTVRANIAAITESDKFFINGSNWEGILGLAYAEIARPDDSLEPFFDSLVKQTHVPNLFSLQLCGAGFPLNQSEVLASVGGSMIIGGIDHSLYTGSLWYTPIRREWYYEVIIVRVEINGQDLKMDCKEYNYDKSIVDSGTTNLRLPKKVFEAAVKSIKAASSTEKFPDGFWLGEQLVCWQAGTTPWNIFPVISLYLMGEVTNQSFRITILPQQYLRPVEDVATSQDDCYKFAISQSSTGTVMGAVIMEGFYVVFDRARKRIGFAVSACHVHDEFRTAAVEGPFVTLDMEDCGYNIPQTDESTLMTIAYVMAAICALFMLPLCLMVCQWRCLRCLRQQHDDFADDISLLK

modulator class (neprilysin / α-secretase / β-secretase) [1]: triple modulator
Compound: O=C(O)CCCCCCCCCCCCCCOC1CCc2c(c3c(c4c2O[C@H](c2cc(O)c(O)c(O)c2)[C@H](OC(=O)c2cc(O)c(O)c(O)c2)C4)OC(OCCCCCCCCCCCCCCC(=O)O)CC3)O1 (some centres unmarked) [NUP-E15-2]
neprilysin activity potentiating action (neprilysin [2]): about 1.5 times that of control
ADAM17 expression at the mRNA level (ADAM17): about 3.7 times that of control
expression level of neprilysin at the mRNA level [3]: about 7.9 times that of control

Compound: C=CCc1ccc(O)c(-c2ccc(O)c(CC=C)c2)c1 [Honokiol]
neprilysin activity potentiating action (neprilysin [2]): about 1.3 times that of control

modulator class (neprilysin / α-secretase / β-secretase) [1]: double modulator
β-secretase activity, remaining relative to control (β-secretase): about 41 % that of control
Compound: CC1CCC2C(C1)c1c(c3c(c4c1OC(C)(C)C1CCC(C)CC41)O[C@H](c1cc(O)c(O)c(O)c1)[C@H](OC(=O)c1cc(O)c(O)c(O)c1)C3)OC2(C)C (some centres unmarked) [NUP-11]
log P octanol [4]: >10
extracellularly secreted APPsα/APPsβ ratio (APP): about 2.0 times that of control
expression amount of neprilysin at the protein level (neprilysin [5]): about 3.3 times that of control
neprilysin activity potentiating action (neprilysin [2]): about 3.5 times that of control
ADAM17 expression at the mRNA level (ADAM17): about 2.4 times that of control
expression level of neprilysin at the mRNA level [3]: about 4 times that of control

Compound: Amentoflavone
neprilysin activity potentiating action (neprilysin [2]): about 2 times that of control

Compound: O=c1cc(-c2ccccc2)oc2cc(O)cc(O)c12 [Chrysin]
neprilysin activity potentiating action (neprilysin [2]): about 1.4 times that of control

Compound: CC12CC[C@@H](C(C)(C)O)[C@H](C1)c1c(cc(O)c3c1O[C@H](c1cc(O)c(O)c(O)c1)[C@H](OC(=O)c1cc(O)c(O)c(O)c1)C3)O2 [NUP-6]
log P octanol [4]: 1.85

Compound: O=C(O[C@@H]1Cc2c(O)cc(O)cc2O[C@@H]1c1cc(O)c(O)c(O)c1)c1cc(O)c(O)c(O)c1 [EGCg, (−)-epigallocatechin-3-O-gallate, reference compound]
log P octanol [4]: 1.00
neprilysin activity potentiating action (neprilysin [2]): about 1.5 times that of control

Compound: O=c1cc(-c2ccccc2)oc2cc(O)c(O)c(O)c12 [Baicalein]
neprilysin activity potentiating action (neprilysin [2]): about 1.7 times that of control

Compound: O=c1cc(-c2ccc(O)cc2)oc2cc(O)cc(O)c12 [Apigenin]
neprilysin activity potentiating action (neprilysin [2]): about 1.5 times that of control

modulator class (neprilysin / α-secretase / β-secretase) [1]: double modulator
β-secretase activity, remaining relative to control (β-secretase): about 37 % that of control
Compound: C/C(=C\Cc1c(O)cc2c(c1O)C[C@@H](OC(=O)c1cc(O)c(O)c(O)c1)[C@@H](c1cc(O)c(O)c(O)c1)O2)CCCC(C)CCCC(C)CCCC(C)C (some centres unmarked) [NUP-19]
log P octanol [4]: >10
extracellularly secreted APPsα/APPsβ ratio (APP): about 1.4 times that of control
expression amount of neprilysin at the protein level (neprilysin [5]): about 3.2 times that of control
neprilysin activity potentiating action (neprilysin [2]): about 2.7 times that of control
ADAM17 expression at the mRNA level (ADAM17): about 1.3 times that of control
expression level of neprilysin at the mRNA level [3]: about 2.1 times that of control

Compound: O=c1c(O)c(-c2ccc(O)cc2)oc2cc(O)cc(O)c12 [Kaempferol]
neprilysin activity potentiating action (neprilysin [2]): about 1.5 times that of control
